# Source: patent publication US3981999A, “Fish disease treatment” (Dainippon Pharmaceutical Co., Ltd., priority 1973, dated 1976)
# Where two headings read alike, the source gives them in different places.
# Tests used:
# [1] = tested on: Aeromonas liquefaciens Y-62; assay: MIC by broth serial dilution; type: cell-based; conditions: Aeromonas hydrophila
# Procedure: (§1) The MIC (minimum inhibitory concentration) of a test compound was determined by the serial dilution method on various pathogenic microorganisms incubated under the following experimental conditions. The lowest concentration at which the visible growth of the organism was inhibited was considered as MIC. […]
# (§2) the broth-dilution method bouillon, pH 7.2, except for Vibrio (3% NaCl-bouillon, pH 7.2), Pasteurella (2% NaCl-Brain Heart Infusion, pH 7.3 and Chondrococcus (TY medium, pH 7.3) 1 drop of a bacterial suspension per test tube (100 - 1000 minimal growing units in the medium) 25°C, except for Pseud. anguilliseptica (20°C)
# (§3) 48 hours, except for Pseudo. anguilliseptica ([…])
# [2] = tested on: Aeromonas salmonicida Hara-1; assay: MIC by broth serial dilution; type: cell-based
# Procedure: as §1, §2, §3
# [3] = tested on: Aeromonas salmonicida Hara-2; assay: MIC by broth serial dilution; type: cell-based
# Procedure: as §1, §2, §3
# [4] = tested on: Aeromonas salmonicida Kawazu; assay: MIC by broth serial dilution; type: cell-based
# Procedure: as §1, §2, §3
# [5] = tested on: Aeromonas salmonicida Kusuda; assay: MIC by broth serial dilution; type: cell-based
# Procedure: as §1, §2, §3
# [6] = tested on: Chondrococcus sp K-1; assay: MIC by broth serial dilution; type: cell-based
# Procedure: as §1, §2, §3
# [7] = tested on: Chondrococcus sp K-2; assay: MIC by broth serial dilution; type: cell-based
# Procedure: as §1, §2, §3
# [8] = tested on: Pasteurella piscicida Al-3; assay: MIC by broth serial dilution; type: cell-based; conditions: Photobacterium damselae
# Procedure: as §1, §2, §3
# [9] = tested on: Pasteurella piscicida K-1; assay: MIC by broth serial dilution; type: cell-based; conditions: Photobacterium damselae
# Procedure: as §1, §2, §3
# [10] = tested on: Pseudomonas anguilliseptica S-1; assay: MIC by broth serial dilution; type: cell-based
# Procedure: as §1, §2, §3
# [11] = tested on: Pseudomonas anguilliseptica T-2; assay: MIC by broth serial dilution; type: cell-based
# Procedure: as §1, §2, §3
# [12] = tested on: Vibrio anguillarum A-8; assay: MIC by broth serial dilution; type: cell-based
# Procedure: as §1, §2, §3
# [13] = tested on: Vibrio anguillarum K-3; assay: MIC by broth serial dilution; type: cell-based
# Procedure: as §1, §2, §3
# [14] = tested on: Vibrio anguillarum Km-30; assay: MIC by broth serial dilution; type: cell-based
# Procedure: as §1, §2, §3
# [15] = tested on: Aeromonas liquefacieus Y-62; assay: Oral effect against Aeromonas infection in goldfish; type: in vivo
# Procedure: Goldfish each weighing about 6 - 7 g were given a fish food containing each of the test compounds. After 30 minutes, the fish were infected intramuscularly with Aeromonas liquefacieus Y-62 (about 10^7 germs/fish) under ether anesthesia. […] In the same manner, the control group was given the same fish food without the test compound.
# [16] = tested on: goldfish; assay: Oral toxicity in goldfish; type: in vivo; conditions: 10% in diet (PA 800, AT-1493 955, AT-1557 935, AT-1475 923 mg/kg); for Mortality: 7 days; for Number of the survival after 1 day from administration / Number of the survival after 2 days from administration / Number of the survival after 3 days from administration / Number of the survival after 4 days from administration / Number of the survival after 5 days from administration / Number of the survival after 6 days from administration / Number of the survival after 7 days from administration: day 0: 5 fish
# Procedure: A diet containing 10% of each of the test compounds was given orally to groups each consisting of 5 goldfish each weighing 6 to 10 g, and observation was made for the following 7 days. The temperature of the water was maintained at 28°C.
# [17] = Y62, bouillon pH 7.2, 25°C, 48 hours, read-out: MIC
# [18] = HARA1, bouillon pH 7.2, 25°C, 48 hours, read-out: MIC
# [19] = HARA2, bouillon pH 7.2, 25°C, 48 hours, read-out: MIC
# [20] = bouillon pH 7.2, 25°C, 48 hours, read-out: MIC
# [21] = TY medium pH 7.3, 25°C, 48 hours, read-out: MIC
# [22] = AL3, 2% NaCl-Brain Heart Infusion pH 7.3, 25°C, 48 hours, read-out: MIC
# [23] = K1, 2% NaCl-Brain Heart Infusion pH 7.3, 25°C, 48 hours, read-out: MIC
# [24] = S1, bouillon pH 7.2, 20°C, 7 hours, read-out: MIC
# [25] = T2, bouillon pH 7.2, 20°C, 7 hours, read-out: MIC
# [26] = A8, 3% NaCl-bouillon pH 7.2, 25°C, 48 hours, read-out: MIC
# [27] = K3, 3% NaCl-bouillon pH 7.2, 25°C, 48 hours, read-out: MIC
# [28] = KM30, 3% NaCl-bouillon pH 7.2, 25°C, 48 hours, read-out: MIC
# [29] = 0.1% in diet (PA 6.1, AT-1493 7.5, AT-1557 7.6, AT-1475 7.5 mg/kg), 5 days
# [30] = 0.1% in diet (PA 6.1, AT-1493 7.5, AT-1557 7.6, AT-1475 7.5 mg/kg), day 0: PA 10, others 5 fish
# [31] = 0.3% in diet, 22.3 mg/kg, day 0: 5 fish
# [32] = 0.03% in diet (PA 2.5, AT-1493 2.5, AT-1557 2.2 mg/kg), 5 days
# [33] = 0.03% in diet (PA 2.5, AT-1493 2.5, AT-1557 2.2 mg/kg), day 0: PA 10, others 5 fish
# [34] = 1% in diet, 80.4 mg/kg, day 0: 5 fish
# [35] = 3% in diet, 253.1 mg/kg, day 0: 5 fish
smiles,measurement,setting,value
"C=Cn1cc(C(=O)O)c(=O)c2ccc(N3CCNCC3)nc21 [AT-1475, 1,4-Dihydro-7-(1-piperazinyl)-4-oxo-1-vinyl-1,8-naphthyridine-3-carboxylicacid]",MIC,[1]; [17],0.3 µg/mL
same,MIC,[2]; [18],0.3 µg/mL
same,MIC,[3]; [19],1 µg/mL
same,MIC,[4]; [20],0.3 µg/mL
same,MIC,[5]; [20],0.3 µg/mL
same,MIC,[6]; [21],1 µg/mL
same,MIC,[7]; [21],1 µg/mL
same,MIC,[8]; [22],1 µg/mL
same,MIC,[9]; [23],1 µg/mL
same,MIC,[10]; [24],0.1 µg/mL
same,MIC,[11]; [25],0.1 µg/mL
same,MIC,[12]; [26],10 µg/mL
same,MIC,[13]; [27],3 µg/mL
same,MIC,[14]; [28],10 µg/mL
same,Percent survival,[15]; [29],60%
same,Number of surviving fish after 1 day,[15]; [30],5
same,Number of surviving fish after 2 days,[15]; [30],4
same,Number of surviving fish after 3 days,[15]; [30],4
same,Number of surviving fish after 4 days,[15]; [30],3
same,Number of surviving fish after 5 days,[15]; [30],3
same,Percent survival,"[15]; 0.3% in diet, 22.3 mg/kg, 5 days",100%
same,Number of surviving fish after 1 day,[15]; [31],5
same,Number of surviving fish after 2 days,[15]; [31],5
same,Number of surviving fish after 3 days,[15]; [31],5
same,Number of surviving fish after 4 days,[15]; [31],5
same,Number of surviving fish after 5 days,[15]; [31],5
same,Mortality,[16],0%
same,Number of the survival after 1 day from administration,[16],5
same,Number of the survival after 2 days from administration,[16],5
same,Number of the survival after 3 days from administration,[16],5
same,Number of the survival after 4 days from administration,[16],5
same,Number of the survival after 5 days from administration,[16],5
same,Number of the survival after 6 days from administration,[16],5
same,Number of the survival after 7 days from administration,[16],5
"C=Cn1cc(C(=O)O)c(=O)c2ccc(N3CCN(C)CC3)cc21 [AT-1493, 1,4-Dihydro-7-(4-methyl-1-piperazinyl)-4-oxo-1-vinylquinoline-3-carboxylicacid]",MIC,[1]; [17],0.1 µg/mL
same,MIC,[2]; [18],0.1 µg/mL
same,MIC,[3]; [19],0.1 µg/mL
same,MIC,[4]; [20],0.1 µg/mL
same,MIC,[5]; [20],0.1 µg/mL
same,MIC,[6]; [21],3 µg/mL
same,MIC,[7]; [21],3 µg/mL
same,MIC,[8]; [22],1 µg/mL
same,MIC,[9]; [23],0.3 µg/mL
same,MIC,[10]; [24],0.1 µg/mL
same,MIC,[11]; [25],0.1 µg/mL
same,MIC,[12]; [26],3 µg/mL
same,MIC,[13]; [27],3 µg/mL
same,MIC,[14]; [28],3 µg/mL
same,Percent survival,[15]; [32],100%
same,Number of surviving fish after 1 day,[15]; [33],5
same,Number of surviving fish after 2 days,[15]; [33],5
same,Number of surviving fish after 3 days,[15]; [33],5
same,Number of surviving fish after 4 days,[15]; [33],5
same,Number of surviving fish after 5 days,[15]; [33],5
same,Percent survival,[15]; [29],100%
same,Number of surviving fish after 1 day,[15]; [30],5
same,Number of surviving fish after 2 days,[15]; [30],5
same,Number of surviving fish after 3 days,[15]; [30],5
same,Number of surviving fish after 4 days,[15]; [30],5
same,Number of surviving fish after 5 days,[15]; [30],5
same,Mortality,[16],0%
same,Number of the survival after 1 day from administration,[16],5
same,Number of the survival after 2 days from administration,[16],5
same,Number of the survival after 3 days from administration,[16],5
same,Number of the survival after 4 days from administration,[16],5
same,Number of the survival after 5 days from administration,[16],5
same,Number of the survival after 6 days from administration,[16],5
same,Number of the survival after 7 days from administration,[16],5
"C=Cn1cc(C(=O)O)c(=O)c2ccc(N3CCN(CC)CC3)cc21 [AT-1557, 1,4-Dihydro-7-(4-ethyl-1-piperazinyl)-4-oxo-1-vinylquinoline-3-carboxylic acid]",MIC,[1]; [17],0.3 µg/mL
same,MIC,[2]; [18],0.3 µg/mL
same,MIC,[3]; [19],0.3 µg/mL
same,MIC,[4]; [20],0.1 µg/mL
same,MIC,[5]; [20],0.3 µg/mL
same,MIC,[6]; [21],1 µg/mL
same,MIC,[7]; [21],1 µg/mL
same,MIC,[8]; [22],1 µg/mL
same,MIC,[9]; [23],1 µg/mL
same,MIC,[10]; [24],0.1 µg/mL
same,MIC,[11]; [25],0.1 µg/mL
same,MIC,[12]; [26],3 µg/mL
same,MIC,[13]; [27],10 µg/mL
same,MIC,[14]; [28],10 µg/mL
same,Percent survival,[15]; [32],80%
same,Number of surviving fish after 1 day,[15]; [33],5
same,Number of surviving fish after 2 days,[15]; [33],4
same,Number of surviving fish after 3 days,[15]; [33],4
same,Number of surviving fish after 4 days,[15]; [33],4
same,Number of surviving fish after 5 days,[15]; [33],4
same,Percent survival,[15]; [29],100%
same,Number of surviving fish after 1 day,[15]; [30],5
same,Number of surviving fish after 2 days,[15]; [30],5
same,Number of surviving fish after 3 days,[15]; [30],5
same,Number of surviving fish after 4 days,[15]; [30],5
same,Number of surviving fish after 5 days,[15]; [30],5
same,Mortality,[16],0%
same,Number of the survival after 1 day from administration,[16],5
same,Number of the survival after 2 days from administration,[16],5
same,Number of the survival after 3 days from administration,[16],5
same,Number of the survival after 4 days from administration,[16],5
same,Number of the survival after 5 days from administration,[16],5
same,Number of the survival after 6 days from administration,[16],5
same,Number of the survival after 7 days from administration,[16],5
"CN(C)C1C(=O)C(C(N)=O)=C(O)C2(O)C(=O)C3=C(O)c4c(O)cccc4C(C)(O)C3CC12 (centres unmarked) [Tetracycline, tetracycline, reference compound]",MIC,"[1]; Y62, 48 h, pH 7.2",1 µg/mL
same,MIC,"[2]; HARA1, 48 h, pH 7.2",0.3 µg/mL
same,MIC,"[3]; HARA2, 48 h, pH 7.2",0.1 µg/mL
same,MIC,"[4]; 48 h, pH 7.2",1 µg/mL
same,MIC,"[5]; 48 h, pH 7.2",0.3 µg/mL
same,MIC,"[6]; 48 h, pH 7.3",1 µg/mL
same,MIC,"[7]; 48 h, pH 7.3",1 µg/mL
same,MIC,"[8]; AL3, 48 h, pH 7.3",0.3 µg/mL
same,MIC,"[9]; K1, 48 h, pH 7.3",0.3 µg/mL
same,MIC,"[10]; S1, 7 h, pH 7.2",0.3 µg/mL
same,MIC,"[11]; T2, 7 h, pH 7.2",0.3 µg/mL
same,MIC,"[12]; A8, 48 h, pH 7.2",1 µg/mL
same,MIC,"[13]; K3, 48 h, pH 7.2",1 µg/mL
same,MIC,"[14]; KM30, 48 h, pH 7.2",0.3 µg/mL
same,Percent survival,"[15]; 1% in diet, 80.4 mg/kg",0%
same,Number of surviving fish after 1 day,[15]; [34],3
same,Number of surviving fish after 2 days,[15]; [34],0
same,Number of surviving fish after 3 days,[15]; [34],0
same,Percent survival,"[15]; 3% in diet, 253.1 mg/kg",0%
same,Number of surviving fish after 1 day,[15]; [35],5
same,Number of surviving fish after 2 days,[15]; [35],1
same,Number of surviving fish after 3 days,[15]; [35],0
same,Percent survival,[15]; diet concentration of as high as more than 0.1% as well as as low as 0.1%,zero
